Where two headings read alike, the source gives them in different places.
Target: T1, recombinant human GluN1/GluN2A receptor (Homo sapiens, UniProt Q05586+Q12879)
T1 construct: expressed in transfected cells; host or cells: HEK293, tetracycline-inducible expression
Experiment: Whole-cell patch clamp of mammalian cells (Syncropatch 384i), NMDA modulation
Assay type: cell-based
Conditions: HEK293 cells, human GluN1/GluN2A, glutamate 1 μM / glycine 100 μM, -80 mV, peak amplitude increase; for EC50: read-out: EC50
Text: Whole-Cell Patch Clamp of Mammalian Cells (Syncropatch 384i (Nanion Technologies))
Whole-cell patch clamp electrophysiology was used to investigate the effects of compounds on GluN1/GluN2A N-methyl-D-aspartate (NMDA) glutamate receptors expressed in mammalian cells.
Human embryonic kidney (HEK293) cells expressing the recombinant human GluN1/GluN2A receptor under the control of a tetracycline-inducible expression system were used. Cells were maintained in Dulbecco's Modified Eagle's Medium (DMEM) with 1% glutamine, 10% Tetracycline System Approved fetal bovine serum (FBS), and NMDA inhibitors. Cells were cultured in a humidified 5% CO2 incubator at 37° C. Cells were induced with 50 ng/ml tetracycline 18-24 hours prior to testing. A cocktail of channel blockers was added to the media to prevent cell death.
Cells were 60-80% confluent at the time of harvest. Cells were detached from the flask TrypLE Enzyme Express (Thermo Fisher) at 37° C., and then cold extracellular solution was added to the flask, followed by incubation at 4° C. and then trituration of the cells. The cell solution was then placed on a shaker on the Syncropatch platform at 10° C. with a shake speed of a minimum 200 rpm for at least 30 minutes prior to testing.
Extracellular (EC) solution (in mM) —140 NaCl, 4 KCl, 5 CaCl2, 10 HEPES, 5 Glucose, pH 7.4 with NaOH. All external solutions contained 0.2% DMSO and 0.01% Kolliphor® EL (C5135, Sigma) throughout the experiment.
Intracellular (IC) solution (in mM) —120 CsF, 10 mM EGTA, 10 NaCl, 10 HEPES, 4 NaATP, 2 MgCl2, pH 7.2 with CsOH.
First, the DMSO Master Plate was prepared, in which the DMSO stock of each test compound was serially diluted in 100% DMSO to 1000× the final assay concentration. Immediately prior to assay testing, the compounds were diluted 1:100 by transferring solutions from the DMSO Mast Plate to the Intermediate Plate pre-filled with EC solution using a Biomek FX automated liquid handling system. Compounds were then diluted further with extracellular solution into two pre-incubation plates—1) compound from the Intermediate Plate was mixed with EC solution at a 1:5 dilution to create a 2× Compound Pre-Incubation Plate which was diluted a further 1:2 when added to the Syncropatch for the initial compound pre-incubation. And 2) compound from the Intermediate plate was mixed with EC solution at a 1:10 Dilution to create the 1× Compound Pre-Incubation Plate, which was used for subsequent compound pre-incubations. Finally, a Compound+Agonist Plate was prepared by mixing compound from the 2× Compound Pre-Incubation Plate with 2× concentration of co-agonists in a 1:1 ratio.
Each experiment sequentially included cell catching, sealing, whole-cell formation, liquid application, recording and data acquisition. Whole-cell patch clamp recordings were performed using multi-hole high resistance chips on the SyncroPatch 384i (Nanion Technologies). A steady-state voltage pulse at -80 mV was applied throughout the assay and a 10 second recording window was triggered around 1 second prior to application of co-agonists. Currents were leak corrected and sampled at 5 kHz.
A fast application was used, in which 5 μl co-agonist was rapidly applied at a speed of 30 μl/s and then rapidly removed from the well. To test for modulator activity, the co-agonists glutamate (1 μM) and glycine (100 μM) were applied three times to show activation reproducibility, followed by 120 seconds pre-incubation of test compound alone. The test compound was then re-applied in the presence of co-agonists two times. This was followed by application of the agonist alone, although test compound may not be fully washed from the well prior to this step. Finally, a saturating concentration of co-agonists (glutamate 100 μM/glycine 100 μM) was applied.
The voltage protocol generation data collection and analysis were performed on PatchControll384 and DataControll384. […]

T1 sequence (Q12879 23-1464, other chains not shown): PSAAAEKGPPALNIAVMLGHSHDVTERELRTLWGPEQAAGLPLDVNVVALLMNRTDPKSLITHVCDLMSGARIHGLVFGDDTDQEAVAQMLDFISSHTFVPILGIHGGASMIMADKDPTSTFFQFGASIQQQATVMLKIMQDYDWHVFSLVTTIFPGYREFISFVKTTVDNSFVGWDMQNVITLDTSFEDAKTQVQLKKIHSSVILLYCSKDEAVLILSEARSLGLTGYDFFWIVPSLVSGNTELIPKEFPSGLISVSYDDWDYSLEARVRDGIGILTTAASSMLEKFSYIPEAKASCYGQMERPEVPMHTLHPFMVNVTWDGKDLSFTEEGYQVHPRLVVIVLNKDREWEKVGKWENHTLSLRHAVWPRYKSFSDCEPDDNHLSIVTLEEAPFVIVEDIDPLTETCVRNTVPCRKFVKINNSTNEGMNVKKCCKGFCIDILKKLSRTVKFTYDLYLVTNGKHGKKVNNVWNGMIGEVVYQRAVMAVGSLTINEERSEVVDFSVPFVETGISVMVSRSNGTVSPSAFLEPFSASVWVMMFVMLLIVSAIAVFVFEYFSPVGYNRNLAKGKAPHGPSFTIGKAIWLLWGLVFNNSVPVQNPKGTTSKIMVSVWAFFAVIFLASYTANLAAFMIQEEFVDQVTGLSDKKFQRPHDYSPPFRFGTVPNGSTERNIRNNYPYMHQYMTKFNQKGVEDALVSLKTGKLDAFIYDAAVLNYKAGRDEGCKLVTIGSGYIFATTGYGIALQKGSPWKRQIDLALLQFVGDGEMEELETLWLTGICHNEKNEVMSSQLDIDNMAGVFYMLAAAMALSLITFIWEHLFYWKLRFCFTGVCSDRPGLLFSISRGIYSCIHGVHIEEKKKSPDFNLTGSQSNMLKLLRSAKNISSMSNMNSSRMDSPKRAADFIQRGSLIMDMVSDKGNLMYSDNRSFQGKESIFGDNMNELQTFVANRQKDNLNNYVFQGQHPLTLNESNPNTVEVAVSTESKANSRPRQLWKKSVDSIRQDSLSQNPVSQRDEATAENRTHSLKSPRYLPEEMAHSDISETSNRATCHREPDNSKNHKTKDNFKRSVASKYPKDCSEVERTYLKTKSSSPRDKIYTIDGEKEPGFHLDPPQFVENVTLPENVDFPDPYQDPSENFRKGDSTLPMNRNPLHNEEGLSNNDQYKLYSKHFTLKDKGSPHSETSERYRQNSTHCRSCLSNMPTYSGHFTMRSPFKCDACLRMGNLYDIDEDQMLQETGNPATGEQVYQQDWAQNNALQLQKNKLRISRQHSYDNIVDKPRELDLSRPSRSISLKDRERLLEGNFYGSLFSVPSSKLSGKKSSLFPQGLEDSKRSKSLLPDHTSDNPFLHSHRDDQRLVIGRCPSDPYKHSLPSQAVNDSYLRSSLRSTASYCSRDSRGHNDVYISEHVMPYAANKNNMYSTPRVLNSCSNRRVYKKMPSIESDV

CC[C@]1(O)CC[C@@]2(C)[C@@H](CC[C@@H]3[C@@H]2CC[C@]2(C)[C@@H](C(CC[C@@H](O)C(C)C)C(F)(F)F)CC[C@@H]32)C1 (stereo in doubt) [Compound A-19, (3S,5S,8R,9S,10S,13S,14S,17R)-3-ethyl-10,13-dimethyl-17-((2R,5R)-1,1,1-trifluoro-5-hydroxy-6-methylheptan-2-yl)hexadecahydro-1H-cyclopenta[a]phenanthren-3-ol] showed an EC50 (Table A-2) greater than 1000 nM.

CCC1(O)CCC[C@@]2(C)[C@@H](CC[C@@H]3[C@@H]2CC[C@]2(C)[C@@H]([C@H](C)CC[C@](C)(O)C(F)(F)F)CC[C@@H]32)C1 (stereo in doubt) [Compound D-8, (1R,3aS,3bR,5aS,7S,10aS,10bS,12aR)-7-ethyl-10a,12a-dimethyl-1-((2R,5S)-6,6,6-trifluoro-5-hydroxy-5-methylhexan-2-yl)octadecahydrocyclohepta[a]cyclopenta[f]naphthalen-7-ol] was tested, and the Emax (Table D-2) was 100 to 200% and the EC50 (Table D-2) was greater than 1000 nM.

CC[C@H](CCCC(C)(C)O)[C@H]1CC[C@H]2[C@@H]3CC[C@H]4C[C@](O)(CC)CC[C@]4(C)[C@H]3CC[C@]12C [Compound A-1, (3S,5S,8R,9S,10S,13R,14S,17R)-3-ethyl-17-((R)-7-hydroxy-7-methyloctan-3-yl)-10,13-dimethylhexadecahydro-1H-cyclopenta[a]phenanthren-3-ol] showed an Emax (Table A-2) of 100 to 200% and an EC50 (Table A-2) of 1 to 100 nM.

CC[C@H](CC[C@@](C)(O)C(F)(F)F)[C@H]1CC[C@H]2[C@@H]3CC[C@H]4C[C@](O)(CC)CC[C@]4(C)[C@H]3CC[C@]12C [Compound A-2, (3S,5S,8R,9S,10S,13R,14S,17R)-3-ethyl-10,13-dimethyl-17-((3R,6R)-7,7,7-trifluoro-6-hydroxy-6-methylheptan-3-yl)hexadecahydro-1H-cyclopenta[a]phenanthren-3-ol] was tested, and the Emax (Table A-2) was 100 to 200% and the EC50 (Table A-2) was 500 to 1000 nM.

Compound CC[C@H](CC[C@](C)(O)C(F)(F)F)[C@H]1CC[C@H]2[C@@H]3CC[C@H]4C[C@](O)(CC)CC[C@]4(C)[C@H]3CC[C@]12C [Compound A-3, (3S,5S,8R,9S,10S,13R,14S,17R)-3-ethyl-10,13-dimethyl-17-((3R,6S)-7,7,7-trifluoro-6-hydroxy-6-methylheptan-3-yl)hexadecahydro-1H-cyclopenta[a]phenanthren-3-ol] has an Emax (Table A-2) greater than 200% and an EC50 (Table A-2) of 1 to 100 nM.

For CC[C@]1(O)CC[C@@]2(C)[C@@H](CC[C@@H]3[C@@H]2CC[C@]2(C)[C@@H]([C@H](F)CC[C@H](O)C(C)C)CC[C@@H]32)C1 [Compound A-4, (3S,5S,8R,9S,10S,13S,14S,17S)-3-ethyl-17-((1R,4S)-1-fluoro-4-hydroxy-5-methylhexyl)-10,13-dimethylhexadecahydro-1H-cyclopenta[a]phenanthren-3-ol], the Emax (Table A-2) was greater than 200% and the EC50 (Table A-2) was 1 to 100 nM.

For CC[C@]1(O)CC[C@@]2(C)[C@@H](CC[C@@H]3[C@@H]2CC[C@]2(C)[C@@H]([C@H](F)CC[C@@H](O)C(C)C)CC[C@@H]32)C1 [Compound A-5, (3S,5S,8R,9S,10S,13S,14S,17S)-3-ethyl-17-((1R,4R)-1-fluoro-4-hydroxy-5-methylhexyl)-10,13-dimethylhexadecahydro-1H-cyclopenta[a]phenanthren-3-ol], the Emax (Table A-2) was greater than 200% and the EC50 (Table A-2) was 1 to 100 nM.

CC[C@]1(O)CC[C@@]2(C)[C@@H](CC[C@@H]3[C@@H]2CC[C@]2(C)[C@@H]([C@@H](CC[C@@H](O)C(C)C)OC)CC[C@@H]32)C1 [Compound A-6, (3S,5S,8R,9S,10S,13S,14S,17S)-3-ethyl-17-((1R,4R)-4-hydroxy-1-methoxy-5-methylhexyl)-10,13-dimethylhexadecahydro-1H-cyclopenta[a]phenanthren-3-ol] gave an Emax (Table A-2) greater than 200% and an EC50 (Table A-2) of 100 to 500 nM.

In the case of CC[C@]1(O)CC[C@@]2(C)[C@@H](CC[C@@H]3[C@@H]2CC[C@]2(C)[C@@H]([C@@H](CC[C@H](O)C(C)C)OC)CC[C@@H]32)C1 [Compound A-7, (3S,5S,8R,9S,10S,13S,14S,17S)-3-ethyl-17-((1R,4S)-4-hydroxy-1-methoxy-5-methylhexyl)-10,13-dimethylhexadecahydro-1H-cyclopenta[a]phenanthren-3-ol], the Emax (Table A-2) is reported as greater than 200% and the EC50 (Table A-2) is reported as 100 to 500 nM.

For CC[C@]1(O)CC[C@@]2(C)[C@@H](CC[C@@H]3[C@@H]2CC[C@]2(C)[C@@H](C(C#N)CCCC(C)(C)O)CC[C@@H]32)C1 (stereo partly drawn) [Compound A-8, 2-((3S,5S,8R,9S,10S,13S,14S,17R)-3-ethyl-3-hydroxy-10,13-dimethylhexadecahydro-1H-cyclopenta[a]phenanthren-17-yl)-6-hydroxy-6-methylheptanenitrile], the Emax (Table A-2) was 100 to 200% and the EC50 (Table A-2) was 1 to 100 nM.

Work on CC[C@]1(O)CC[C@@]2(C)[C@@H](CC[C@@H]3[C@@H]2CC[C@]2(C)[C@@H]([C@H](C#N)CCCC(C)(C)O)CC[C@@H]32)C1 [Compound A-9, (R)-2-((3S,5S,8R,9S,10S,13S,14S,17R)-3-ethyl-3-hydroxy-10,13-dimethylhexadecahydro-1H-cyclopenta[a]phenanthren-17-yl)-6-hydroxy-6-methylheptanenitrile] yielded an Emax (Table A-2) greater than 200% and an EC50 (Table A-2) of 1 to 100 nM.

Work on CC[C@]1(O)CC[C@@]2(C)[C@@H](CC[C@@H]3[C@@H]2CC[C@]2(C)[C@@H]([C@@H](C#N)CCCC(C)(C)O)CC[C@@H]32)C1 [Compound A-9a] yielded an Emax (Table A-2) of less than 100% and an EC50 (Table A-2) of 1 to 100 nM.

CC[C@]1(O)CC[C@@]2(C)[C@@H](CC[C@@H]3[C@@H]2CC[C@]2(C)[C@@H]([C@@H](CCCC(C)(C)O)OC)CC[C@@H]32)C1 [Compound A-10, (3S,5S,8R,9S,10S,13S,14S,17S)-3-ethyl-17-((R)-5-hydroxy-1-methoxy-5-methylhexyl)-10,13-dimethylhexadecahydro-1H-cyclopenta[a]phenanthren-3-ol] showed an Emax (Table A-2) of 100 to 200% and an EC50 (Table A-2) of 100 to 500 nM.

Compound CCO[C@H](CC[C@H](O)C(C)C)[C@H]1CC[C@H]2[C@@H]3CC[C@H]4C[C@](O)(CC)CC[C@]4(C)[C@H]3CC[C@]12C [Compound A-11, (3S,5S,8R,9S,10S,13S,14S,17S)-17-((1R,4S)-1-ethoxy-4-hydroxy-5-methylhexyl)-3-ethyl-10,13-dimethylhexadecahydro-1H-cyclopenta[a]phenanthren-3-ol] has an EC50 (Table A-2) greater than 1000 nM.

CCO[C@H](CC[C@H](O)C(C)C)[C@H]1CC[C@H]2[C@@H]3CC[C@@H]4C[C@](O)(CC)CC[C@]4(C)[C@H]3CC[C@]12C [Compound A-11a, (3S,5R,8R,9S,10S,13S,14S,17S)-17-((1R,4S)-1-ethoxy-4-hydroxy-5-methylhexyl)-3-ethyl-10,13-dimethylhexadecahydro-1H-cyclopenta[a]phenanthren-3-ol] was tested, and the Emax (Table A-2) was less than 100% and the EC50 (Table A-2) was greater than 1000 nM.

Work on CC[C@]1(O)CC[C@@]2(C)C(=CC[C@H]3[C@@H]4CC[C@H]([C@@H](CCCC(C)(C)O)OC)[C@@]4(C)CC[C@@H]32)C1 [Compound A-12, (3S,8S,9S,10R,13S,14S,17S)-3-ethyl-17-((R)-5-hydroxy-1-methoxy-5-methylhexyl)-10,13-dimethyl-2,3,4,7,8,9,10,11,12,13,14,15,16,17-tetradecahydro-1H-cyclopenta[a]phenanthren-3-ol] yielded an Emax (Table A-2) of 100 to 200% and an EC50 (Table A-2) of 1 to 100 nM.

Reference: US20240368214A1, “POSITIVE NMDA-MODULATING COMPOUNDS AND METHODS OF USE THEREOF” (SAGE THERAPEUTICS, INC., priority 2021, published 2024)
